Measurements published in patent US11365204B2, “Substituted dihydrothienopyrimidines and their use as phosphodiesterase inhibitors” (UNION therapeutics A/S, priority 2017, dated 2022).
pIC50: −log10 of the molar value.

Legend:
[1] = test system: Human peripheral blood mononuclear cells (PBMC); assay: TNF-α release from LPS-stimulated PBMC; format: cell-based; conditions: Lipopolysaccharide 1 microg/ml, 18 hours, AlphaLISA, read-out: TNF-α IC50 range
Procedure: Human peripheral blood mononuclear cells (PBMC) were isolated from fresh buffy coats by density centrifugation using lymphoprep tubes (Medinor). Frozen PBMC's were washed in serum free assay buffer (RPMI1640 with 25 mM HEPES, 1% pen/strep, […] L glutamine, 0.5% human serum albumin) and living cells counted. Lipopolysaccharide (1 microg/ml; SIGMA) was added to the cells which were then transferred to 384 well tissue culture plates ([…]) containing titrated test compounds. The cells were incubated for 18 hours at 37° C. in serum free assay buffer and the level of TNFalpha in the supernatant was quantitated by AlphaLISA (PerkinElmer) by measuring fluorescence intensity at 615 nm.
Results were expressed as IC50 values calculated from inhibition curves using as controls the secretion in LPS stimulated wells and the secretion in cells incubated with 10 microM of a PDE4 inhibitor reference compound.

[2] = biological target: human PDE4D catalytic domain (UniProt no. Q08499 [S380-L740]) (Homo sapiens (Human), UniProt Q08499); assay: PDE4 assay (TR-FRET, cAMP hydrolysis); format: biochemical; conditions: read-out: PDE4 IC50 range
Procedure: The human PDE4D catalytic domain (UniProt no. Q08499 [S380-L740]) was incubated with a mixture of non-labelled cAMP (cyclic adenosine monophosphate) and fluorescein amidite (FAM) conjugated cAMP and titrated test or reference compound.
Following brief incubation the enzymatic reaction was stopped by addition of binding buffer containing nanoparticles with immobilized trivalent metal ions capable of binding 1) AMP phospho groups and 2) terbium (Tb) donor fluorophores. Subsequent excitation of the Tb donor triggered time-resolved FRET to adjacent FAM acceptor molecules resulting in light emission. In the presence of a PDE4 inhibitor, AMP generation was reduced resulting in a lower fluorescence signal. The cAMP phosphodiester is not bound by the detection system.
Results were expressed as IC50 values (nM) calculated from inhibition curves where the TR-FRET signal was normalized to Tb fluorescence intensity and the negative (DMSO vehicle) and positive (10 microM a PDE4 inhibitor reference compound) controls.

Chain of human PDE4D catalytic domain (Q08499 380-740): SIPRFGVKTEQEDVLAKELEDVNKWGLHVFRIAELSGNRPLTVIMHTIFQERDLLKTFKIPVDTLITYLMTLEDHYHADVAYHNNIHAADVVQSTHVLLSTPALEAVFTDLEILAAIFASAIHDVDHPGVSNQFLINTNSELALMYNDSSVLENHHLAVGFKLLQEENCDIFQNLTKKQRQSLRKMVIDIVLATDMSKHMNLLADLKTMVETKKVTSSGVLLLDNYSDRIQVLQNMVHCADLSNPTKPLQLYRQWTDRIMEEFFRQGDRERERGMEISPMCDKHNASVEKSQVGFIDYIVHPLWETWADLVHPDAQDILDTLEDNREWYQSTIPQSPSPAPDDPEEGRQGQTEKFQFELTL

| Compound | pIC50 [1] | pIC50 [2] |
| --- | --- | --- |
| CN(c1nc(N2CC(OC(=O)c3cnn(C)c3)C2)nc2c1[S+]([O-])CC2)C1CCOCC1 (stereo not drawn) [Example 18, [1-[4-[methyl(tetra-hydropyran-4-yl)amino]-5-oxido-6,7-dihydro-thieno[3,2-d]pyrimidin-5-ium-2-yl]azetidin-3-yl] 1-methylpyrazole-4-carboxylate] | > 7.00 | > 7.00 |
| Cc1ncc(C(=O)OC2CN(c3nc4c(c(N(C)C5CCOCC5)n3)[S+]([O-])CC4)C2)s1 (stereo not drawn) [Example 36, [1-[4-[methyl(tetra-hydropyran-4-yl)amino]-5-oxido-6,7-dihydro-thieno[3,2-d]pyrimidin-5-ium-2-yl]azetidin-3-yl] 2-methylthiazole-5-carboxylate] | > 7.00 | > 7.00 |
| O=C(OC1CN(c2nc3c(c(NC4CC5(COC5)C4)n2)[S@+]([O-])CC3)C1)c1cscn1 (single isomer, unassigned) [Example 71] | < 6.30 | 6.30 to 7.00 |
| CCc1cc(C(=O)OC2CN(c3nc4c(c(N(C)C5CCOCC5)n3)[S+]([O-])CC4)C2)nn1C (stereo not drawn) [Example 45, [1-[4-[methyl(tetra-hydropyran-4-yl)amino]-5-oxido-6,7-dihydro-thieno[3,2-d]pyrimidin-5-ium-2-yl]azetidin-3-yl] 5-ethyl-1-methyl-pyrazole-3-carboxylate] | > 7.00 | > 7.00 |
| CN(c1nc(N2CC(OC(=O)c3cnsc3)C2)nc2c1[S+]([O-])CC2)C1CCOCC1 (stereo not drawn) [Example 3, [1-[4-[Methyl(tetrahydropyran-4-yl)amino]-5-oxido-6,7-dihydrothieno[3,2-d]pyrimidin-5-ium-2-yl]azetidin-3-yl] isothiazole-4-carboxylate] | > 7.00 | > 7.00 |
| Cc1cccc(C(=O)OC2CN(c3nc4c(c(N(C)C5CCOCC5)n3)[S+]([O-])CC4)C2)c1 (stereo not drawn) [Example 25, [1-[4-[methyl(tetra-hydropyran-4-yl)amino]-5-oxido-6,7-dihydro-thieno[3,2-d]pyrimidin-5-ium-2-yl]azetidin-3-yl] 3-methylbenzoate] | > 7.00 | > 7.00 |
| CN(c1nc(N2CC(OC(=O)c3ccccc3)C2)nc2c1[S+]([O-])CC2)C1CCOCC1 (stereo not drawn) [Example 16, [1-[4-[methyl(tetra-hydropyran-4-yl)amino]-5-oxido-6,7-dihydro-thieno[3,2-d]pyrimidin-5-ium-2-yl]azetidin-3-yl] benzoate] | > 7.00 | > 7.00 |
| CN(c1nc(N2CC(OC(=O)[C@H]3CC[C@H](O)CC3)C2)nc2c1[S+](O)CC2)C1CCOCC1 (stereo partly drawn) [Example 39, [1-[4-[methyl(tetra-hydropyran-4-yl)amino]-5-oxido-6,7-dihydro-thieno[3,2-d]pyrimidin-5-ium-2-yl]azetidin-3-yl] 4-hydroxycyclohexane-carboxylate] | > 7.00 | > 7.00 |
| COc1cccc(C(=O)OC2CN(c3nc4c(c(N(C)C5CCOCC5)n3)[S+](O)CC4)C2)c1 (stereo not drawn) [Example 43, [1-[4-[methyl(tetra-hydropyran-4-yl)amino]-5-oxido-6,7-dihydro-thieno[3,2-d]pyrimidin-5-ium-2-yl]azetidin-3-yl] 3-methoxybenzoate] | > 7.00 | > 7.00 |
| CN(c1nc(N2CC(OC(=O)C3CCS(=O)(=O)CC3)C2)nc2c1[S+](O)CC2)C1CCOCC1 (stereo not drawn) [Example 50, [1-[4-[methyl(tetra-hydropyran-4-yl)amino]-5-oxido-6,7-dihydro-thieno[3,2-d]pyrimidin-5-ium-2-yl]azetidin-3-yl] 1,1-dioxothiane-4-carboxylate] | 6.30 to 7.00 | 6.30 to 7.00 |
| O=C(OC1CN(c2nc3c(c(NC4CC5(COC5)C4)n2)[S+]([O-])CC3)C1)C1CCOCC1 (stereo not drawn) [Example 67, [1-[4-(6-oxaspiro[3.3]-heptan-2-ylamino)-5-oxido-6,7-dihydro-thieno[3,2-d]pyrimidin-5-ium-2-yl]azetidin-3-yl] tetrahydropyran-4-carboxylate] | > 7.00 | > 7.00 |
| O=C(OC1CN(c2nc3c(c(NC4CC5(COC5)C4)n2)[S+]([O-])CC3)C1)c1cnsc1 (stereo in doubt) [Example 69, [1-[(5S)-4-(6-oxaspiro-[3.3]heptan-2-ylamino)-5-oxido-6,7-dihydrothieno-[3,2-d]pyrimidin-5-ium-2-yl]azetidin-3-yl] isothia-zole-4-carboxylate] | < 6.30 | 6.30 to 7.00 |
| CC(=O)N1CCC(Nc2nc(N3CC(OC(=O)C4CCOCC4)C3)nc3c2[S+](O)CC3)CC1 (stereo not drawn) [Example 77, [1-[4-[(1-acetyl-4-piperidyl)amino]-5-oxido-6,7-dihydrothieno[3,2-d]pyrimidin-5-ium-2-yl]azetidin-3-yl] tetra-hydropyran-4-carboxylate] | 6.30 to 7.00 | 6.30 to 7.00 |
| Cc1ncc(C(=O)OC2CN(c3nc4c(c(N(C)C5CCOCC5)n3)[S+]([O-])CC4)C2)cn1 (stereo not drawn) [Example 27, [1-[4-[methyl(tetra-hydropyran-4-yl)amino]-5-oxido-6,7-dihydro-thieno[3,2-d]pyrimidin-5-ium-2-yl]azetidin-3-yl] 2-methylpyrimidine-5-carboxylate] | > 7.00 | > 7.00 |
| CN(c1nc(N2CC(OC(=O)c3cccnc3)C2)nc2c1[S@+](O)CC2)C1CCOCC1 [Example 63, [1-[(5R)-4-[methyl-(tetrahydropyran-4-yl)amino]-5-oxido-6,7-dihydrothieno[3,2-d]pyrimidin-5-ium-2-yl]azetidin-3-yl] pyridine-3-carboxylate] | > 7.00 | 6.30 to 7.00 |
| CN(c1nc(N2CC(OC(=O)c3ccc(S(=O)(=O)C4CCCC4)cc3)C2)nc2c1[S+]([O-])CC2)C1CCOCC1 (stereo not drawn) [Example 62, [1-[4-[methyl(tetra-hydropyran-4-yl)amino]-5-oxido-6,7-dihydro-thieno[3,2-d]pyrimidin-5-ium-2-yl]azetidin-3-yl] 4-cyclopentylsulfonyl-benzoate] | > 7.00 | > 7.00 |
| CCc1nc(C(=O)OC2CN(c3nc4c(c(N(C)C5CCOCC5)n3)[S+]([O-])CC4)C2)co1 (stereo not drawn) [Example 33, [1-[4-[methyl(tetra-hydropyran-4-yl)amino]-5-oxido-6,7-dihydro-thieno[3,2-d]pyrimidin-5-ium-2-yl]azetidin-3-yl] 2-ethyloxazole-4-carboxylate] | > 7.00 | > 7.00 |
| CN(c1nc(N2CC(OC(=O)CCS(C)(=O)=O)C2)nc2c1[S+]([O-])CC2)C1CCOCC1 (stereo not drawn) [Example 44] | 6.30 to 7.00 | 6.30 to 7.00 |
| Cc1cc(C(=O)OC2CN(c3nc4c(c(N(C)C5CCOCC5)n3)[S+]([O-])CC4)C2)sn1 (stereo not drawn) [Example 34, [1-[4-[methyl(tetra-hydropyran-4-yl)amino]-5-oxido-6,7-dihydro-thieno[3,2-d]pyrimidin-5-ium-2-yl]azetidin-3-yl] 3-methylisothiazole-5-carboxylate] | > 7.00 | > 7.00 |
| CSCCC(=O)OC1CN(c2nc3c(c(N(C)C4CCOCC4)n2)[S+]([O-])CC3)C1 (stereo not drawn) [Example 15, [1-[4-[methyl(tetra-hydropyran-4-yl)amino]-5-oxido-6,7-dihydro-thieno[3,2-d]pyrimidin-5-ium-2-yl]azetidin-3-yl] 3-methylsulfanyl-propanoate] | > 7.00 | > 7.00 |
| CCCN(c1nc(N2CC(OC(=O)c3cnsc3)C2)nc2c1[S+]([O-])CC2)C1CCOCC1 (stereo not drawn) [Example 9, [1-[4-[Propyl(tetrahydropyran-4-yl)amino]-5-oxido-6,7-dihydrothieno[3,2-d]pyrimidin-5-ium-2-yl]azetidin-3-yl] isothiazole-4-carboxylate] | < 6.30 | < 6.30 |
| CCn1cc(C(=O)OC2CN(c3nc4c(c(N(C)C5CCOCC5)n3)[S+]([O-])CC4)C2)cn1 (stereo not drawn) [Example 32, [1-[4-[methyl(tetra-hydropyran-4-yl)amino]-5-oxido-6,7-dihydro-thieno[3,2-d]pyrimidin-5-ium-2-yl]azetidin-3-yl] 1-ethylpyrazole-4-carboxylate] | > 7.00 | > 7.00 |
| O=C(OC1CN(c2nc3c(c(NC4CC5(COC5)C4)n2)[S+](O)CC3)C1)c1cscn1 (stereo not drawn) [Example 66, [1-[4-(6-oxaspiro[3.3]-heptan-2-ylamino)-5-oxido-6,7-dihydrothieno-[3,2-d]pyrimidin-5-ium-2-yl]azetidin-3-yl] thiazole-4-carboxylate] | > 7.00 | > 7.00 |
| CC(=O)N1CC[C@H](Nc2nc(N3CC(OC(=O)C4CCOCC4)C3)nc3c2[S@+](O)CC3)C1 [Example 74, [1-[4-[[(3S)-1-acetyl-pyrrolidin-3-yl]amino]-5-oxido-6,7-dihydro-thieno[3,2-d]pyrimidin-5-ium-2-yl]azetidin-3-yl]tetrahydropyran-4-carboxylate] | 6.30 to 7.00 | > 7.00 |
